Five compounds from patent EP0343398A2, “7-Substituted quinolone- and naphthyridinecarboxylic acid derivatives” (BAYER AG, priority 1988, dated 1989) can be followed below.

Values after ≈ are worked out from the molar mass of the structure shown.

Common to all, as to experiment: MIC determination (MHK-Werte), comparison with Ciprofloxacin
Common to all, as to format: cell-based

Test [1] has as its system E.coli Neumann. The note with it: for MIC: Escherichia coli.
For test [2], the system named is Pseudo-monas Walter.
Test [3] concerns Enterco. 9790.
Test [4] has as its system Staph. FK422.
Test [5] deals with Enteroc. 27101.
Test [6] relates to Staph. 1756.
For test [7], the system named is Staph. 133.
The test system of test [8] is Pseudo-monas Ellsworth.

For `O=C(O)c1cn(C2CC2)c2cc(-c3cccnc3)c(F)cc2c1=O` [Beispiel 16], the results for the MIC in test [1] and in test [2] were at most 0.015 µg/mL and 0.5 µg/mL (≈ 1.54 µM), respectively.

For the compound `CCOC(=O)c1cn(C2CC2)c2cc(-c3ccccc3)c(F)cc2c1=O` [Beispiel 1, 1-Cyclopropyl-6-fluor-1,4-dihydro-4-oxo-7-phenyl-3-chinolincarbonsäure-ethylester], the MHK-Werte in test [3] was 0,125 µg/ml; in test [1] it was 0,062 µg/ml; in test [4], ≤0,015 µg/ml; in test [5] it was 0,062 µg/ml; in test [2] it was 0,5 µg/ml; in test [6] it was 0,062 µg/ml. Also, the values for the MHK-Werte in test [7] and in test [8] were 0,062 µg/ml and 0,25 µg/ml, respectively.

Take `O=C(O)c1cn(C2CC2)c2cc(N3CCNCC3)c(F)cc2c1=O` [Ciprofloxacin, reference compound]: the MIC in test [3] is 0.25 µg/mL (≈ 0.754 µM); in test [1], at most 0.015 µg/mL; in test [4], 0.25 µg/mL (≈ 0.754 µM); in test [5], 0.25 µg/mL (≈ 0.754 µM); in test [2], 0.25 µg/mL (≈ 0.754 µM); in test [6], 0.25 µg/mL (≈ 0.754 µM). The compound further gave an MIC in test [7] of 0.25 µg/mL (≈ 0.754 µM).

Consider `O=C(O)c1cn(C2CC2)c2cc(-c3ccc4ccccc4c3)c(F)cc2c1=O` [Beispiel 14], for which the MIC turned out to be 0.062 µg/mL (≈ 0.166 µM) in test [1], 1 µg/mL (≈ 2.68 µM) in test [2] and 0.25 µg/mL (≈ 0.67 µM) in test [8].

With `NCc1ccc(-c2cc3c(cc2F)c(=O)c(C(=O)O)cn3C2CC2)cc1` [Beispiel 20, 7-(4-Aminomethylphenyl)-1-cyclopropyl-6-fluor-1,4-dihydro-4-oxo-3-chinolincarbonsäure], in test [1], the MIC was at most 0.015 µg/mL.
